Measured values: patent US12252701B2, “Chimeric antigen receptor T cell therapy” (KITE PHARMA, INC., priority 2020, dated 2025)

Experiments:
[1] = system: phospho-STAT panel (pSTAT3/4/5), CD3+ T cells; experiment: phospho-STAT induction by IL-6, MesoScale Discovery phospho-STAT panel; format: cell-based, human; conditions: CD3+ T cells
Experimental: CD19 CAR-T, PBMC or CD3+ T cells (AllCells) were thawed and rested 0/N at 37° C. in R10 media. Cells were seeded at 700,000 cells/well and were either untreated or treated with 100 ng/ml IL6+drug at indicated concentrations for 20 minutes at 37° C. The cells were then washed with cold PBS and followed by 60 μl of Tris lysis buffer (provided by MSD) for 30 minutes on ice. Lysates were collected by spin down for 10 minutes at >10,000 rpm. 25 μl/well per condition was used for MesoScale Discovery (MSD) assay using the phospho-STAT panel (pSTAT3/4/5) from MesoScale Discovery following the manufacturer's protocol. pSTAT panel plates were blocked with 150 μl of blocker A solution for 1 hr at RT with shaking. Plates were washed three times with 1× Tris wash buffer. 25 μl of lysate samples were added per well, incubated 2 hr at room temperature or at 4° C. overnight. Plates were washed 3 times with 1× tris wash buffer and then 25 μl of detection antibody solution were added to each well and incubated for 1 hr at room temperature with shaking. Plates were washed and 1× read buffer added to each well and plates were read on the MSD instrument.

[2] = system: NALM6.GFP.LUC.CD19 target cells; experiment: Serial killing assay of CAR-T, percent cytotoxicity by luciferase detection; conditions: two different E:T ratios, dose titration
Experimental: The percent cytotoxicity to NALM6.GFP.LUC.CD19 target cells was measured by luciferase detection at each round.
In one embodiment, a serial killing assay is a combination of cell killing and how long it takes for CAR T cells to get exhausted under repeated stimulation. In one embodiment, a serial killing assay is a surrogate measure for CAR T cell persistence in vivo.

[3] = system: phospho-STAT-1, -3 and -5 in purified CD14+ monocytes; experiment: Intracellular phospho-STAT-1, -3, -5 by BD PhosphoFlow in purified monocytes; format: cell-based, human; design: Monocyte-specific pSTAT1 signaling, inhibition / Monocyte-specific pSTAT3 signaling, inhibition / Monocyte-specific pSTAT5 signaling, inhibition: concentration or dose not given beside the values; conditions: purified CD14+ monocytes
Experimental: (§1) Further experiments were performed to look at impacts of JAK inhibitors on STAT phosphorylation in various immune cell subsets.

in vitro = conditions: human, CAR-T cells
[4] = system: phospho-STAT-1, -3 and -5 in CD4, CD8 T cells and monocytes (CAR T product, PBMCs); experiment: Intracellular phospho-STAT-1, -3, -5 by flow cytometry in immune cell subsets of CAR T product and PBMCs; format: cell-based, human; design: Primary Cell IL-6 pSTAT5 signaling (% inhibition) / Primary Cell IL-6 pSTAT1 signaling (% inhibition) / Primary Cell IL-6 pSTAT3 signaling (% inhibition) / Primary cell GM-CSF-pSTAT5, inhibition: concentration or dose not given beside the values
Experimental: as §1

[5] = CAR T cell-derived supernatant, 30 min

CC[C@@H]1CN(C(=O)NCC(F)(F)F)C[C@@H]1c1cnc2cnc3[nH]ccc3n12 [upadacitinib]
pSTAT3 ([1]; 100 ng/ml IL-6 + drug 10 uM, 20 min, MSD signal (No stim. 689, IL-6 alone 33641)): 2450 | pSTAT4 ([1]; 100 ng/ml IL-6 + drug 10 uM, 20 min, MSD signal (No stim. 1964, IL-6 alone 15405)): 2322 | pSTAT5 ([1]; 100 ng/ml IL-6 + drug 10 uM, 20 min, MSD signal (No stim. 9210, IL-6 alone 17743)): 1354 | pSTAT3 ([1]; IL-6 + drug 0.125 uM, MSD signal (No stim. 689, IL-6 alone 33641)): 3605 | pSTAT4 ([1]; IL-6 + drug 0.125 uM, MSD signal (No stim. 1964, IL-6 alone 15405)): 2819 | pSTAT5 ([1]; IL-6 + drug 0.125 uM, MSD signal (No stim. 9210, IL-6 alone 17743)): 1757 | pSTAT3 ([1]; IL-6 + drug 0.5 uM, MSD signal (No stim. 689, IL-6 alone 33641)): 2207 | pSTAT4 ([1]; IL-6 + drug 0.5 uM, MSD signal (No stim. 1964, IL-6 alone 15405)): 2397 | pSTAT5 ([1]; IL-6 + drug 0.5 uM, MSD signal (No stim. 9210, IL-6 alone 17743)): 1528 | pSTAT3 ([1]; IL-6 + drug 1 uM, MSD signal (No stim. 689, IL-6 alone 33641)): 2393 | pSTAT4 ([1]; IL-6 + drug 1 uM, MSD signal (No stim. 1964, IL-6 alone 15405)): 2417 | pSTAT5 ([1]; IL-6 + drug 1 uM, MSD signal (No stim. 9210, IL-6 alone 17743)): 1534 | pSTAT3 ([1]; IL-6 + drug 5 uM, MSD signal (No stim. 689, IL-6 alone 33641)): 2290 | pSTAT4 ([1]; IL-6 + drug 5 uM, MSD signal (No stim. 1964, IL-6 alone 15405)): 2229 | pSTAT5 ([1]; IL-6 + drug 5 uM, MSD signal (No stim. 9210, IL-6 alone 17743)): 1452 | pSTAT3 ([1]; lower dose titration, IL-6 + drug 3.125 nM, MSD signal (No stim. 123, IL-6 alone 5767)): 4615 | pSTAT4 ([1]; lower dose titration, IL-6 + drug 3.125 nM, MSD signal (No stim. 281, IL-6 alone 3624)): 2687 | pSTAT5 ([1]; lower dose titration, IL-6 + drug 3.125 nM, MSD signal (No stim. 324, IL-6 alone 2352)): 1166 | pSTAT3 ([1]; lower dose titration, IL-6 + drug 6.25 nM, MSD signal (No stim. 123, IL-6 alone 5767)): 3572 | pSTAT4 ([1]; lower dose titration, IL-6 + drug 6.25 nM, MSD signal (No stim. 281, IL-6 alone 3624)): 2797 | pSTAT5 ([1]; lower dose titration, IL-6 + drug 6.25 nM, MSD signal (No stim. 324, IL-6 alone 2352)): 1123 | pSTAT3 ([1]; lower dose titration, IL-6 + drug 12.5 nM, MSD signal (No stim. 123, IL-6 alone 5767)): 2560 | pSTAT4 ([1]; lower dose titration, IL-6 + drug 12.5 nM, MSD signal (No stim. 281, IL-6 alone 3624)): 1607 | pSTAT5 ([1]; lower dose titration, IL-6 + drug 12.5 nM, MSD signal (No stim. 324, IL-6 alone 2352)): 696 | pSTAT3 ([1]; lower dose titration, IL-6 + drug 25 nM, MSD signal (No stim. 123, IL-6 alone 5767)): 1495 | pSTAT4 ([1]; lower dose titration, IL-6 + drug 25 nM, MSD signal (No stim. 281, IL-6 alone 3624)): 1248 | pSTAT5 ([1]; lower dose titration, IL-6 + drug 25 nM, MSD signal (No stim. 324, IL-6 alone 2352)): 564 | pSTAT3 ([1]; lower dose titration, IL-6 + drug 50 nM, MSD signal (No stim. 123, IL-6 alone 5767)): 713 | pSTAT4 ([1]; lower dose titration, IL-6 + drug 50 nM, MSD signal (No stim. 281, IL-6 alone 3624)): 860 | pSTAT5 ([1]; lower dose titration, IL-6 + drug 50 nM, MSD signal (No stim. 324, IL-6 alone 2352)): 460 | pSTAT3 ([1]; lower dose titration, IL-6 + drug 100 nM, MSD signal (No stim. 123, IL-6 alone 5767)): 319 | pSTAT4 ([1]; lower dose titration, IL-6 + drug 100 nM, MSD signal (No stim. 281, IL-6 alone 3624)): 555 | pSTAT5 ([1]; lower dose titration, IL-6 + drug 100 nM, MSD signal (No stim. 324, IL-6 alone 2352)): 375 | impact on CAR-T serial killing (percent cytotoxicity) [2]: negative impacts | Monocyte-specific pSTAT1 signaling, inhibition [3, 5]: 100% | Monocyte-specific pSTAT3 signaling, inhibition [3, 5]: 100% | Monocyte-specific pSTAT5 signaling, inhibition [3, 5]: 63% | Monocyte-specific pSTAT1 signaling, inhibition ([3]; rh-GM-CSF-induced): na/ni | Monocyte-specific pSTAT3 signaling, inhibition ([3]; rh-GM-CSF-induced): na/ni | Monocyte-specific pSTAT5 signaling, inhibition ([3]; rh-GM-CSF-induced): 54% | Monocyte-specific pSTAT1 signaling, inhibition ([3]; rhIFNg-induced): 100% | Monocyte-specific pSTAT3 signaling, inhibition ([3]; rhIFNg-induced): 100% | Monocyte-specific pSTAT5 signaling, inhibition ([3]; rhIFNg-induced): 100% | Monocyte-specific pSTAT1 signaling, inhibition ([3]; rhIL6-induced): na/ni | Monocyte-specific pSTAT3 signaling, inhibition ([3]; rhIL6-induced): 100% | Monocyte-specific pSTAT5 signaling, inhibition ([3]; rhIL6-induced): na/ni | viability at 0 day, 50 nM (in vitro): 75% | viability at 0 day, 100 nM (in vitro): 75% | viability at 4 day, 50 nM (in vitro): 63.2% | viability at 4 day, 100 nM (in vitro): 59.9% | viability at 8 day, 50 nM (in vitro): 65.3% | viability at 8 day, 100 nM (in vitro): 62% | viability at 12 day, 50 nM (in vitro): 79% | viability at 12 day, 100 nM (in vitro): 67.5% | Primary Cell IL-6 pSTAT1 signaling (% inhibition) ([4]; CD4 CART cells): 49% | Primary Cell IL-6 pSTAT3 signaling (% inhibition) ([4]; CD4 CART cells): 76% | Primary Cell IL-6 pSTAT5 signaling (% inhibition) ([4]; CD4 CART cells): 60% | Primary Cell IL-6 pSTAT1 signaling (% inhibition) ([4]; CD8 CART cells): 13% | Primary Cell IL-6 pSTAT3 signaling (% inhibition) ([4]; CD8 CART cells): 48% | Primary Cell IL-6 pSTAT5 signaling (% inhibition) ([4]; CD8 CART cells): 52% | Primary cell GM-CSF-pSTAT5, inhibition ([4]; Monocytes within bulk PBMCs): 97% | Primary Cell IL-6 pSTAT1 signaling (% inhibition) ([4]; PBMC CD4 T cells): 74% | Primary Cell IL-6 pSTAT3 signaling (% inhibition) ([4]; PBMC CD4 T cells): 91% | Primary Cell IL-6 pSTAT5 signaling (% inhibition) ([4]; PBMC CD4 T cells): 87% | Primary Cell IL-6 pSTAT1 signaling (% inhibition) ([4]; PBMC CD8 T cells): 32% | Primary Cell IL-6 pSTAT3 signaling (% inhibition) ([4]; PBMC CD8 T cells): 70% | Primary Cell IL-6 pSTAT5 signaling (% inhibition) ([4]; PBMC CD8 T cells): 56% | Primary Cell IL-6 pSTAT1 signaling (% inhibition) ([4]; PBMC Monocytes): 48% | Primary Cell IL-6 pSTAT3 signaling (% inhibition) ([4]; PBMC Monocytes): 93% | Primary Cell IL-6 pSTAT5 signaling (% inhibition) ([4]; PBMC Monocytes): 48% | Primary cell GM-CSF-pSTAT5, inhibition ([4]; T cells within bulk PBMCs): 47%
